Source: article PMC9502272, “A Metabolomics Approach for Predicting OATP1B-Type Transporter-Mediated Drug–Drug Interaction Liabilities” (Pharmaceutics, 2022)
Where a name gives a salt, the structure may show the parent alone.

Target: T1, Oatp1b2 (Mus musculus, UniProt Q9JJL3)
T1 sequence (Q9JJL3 1-689): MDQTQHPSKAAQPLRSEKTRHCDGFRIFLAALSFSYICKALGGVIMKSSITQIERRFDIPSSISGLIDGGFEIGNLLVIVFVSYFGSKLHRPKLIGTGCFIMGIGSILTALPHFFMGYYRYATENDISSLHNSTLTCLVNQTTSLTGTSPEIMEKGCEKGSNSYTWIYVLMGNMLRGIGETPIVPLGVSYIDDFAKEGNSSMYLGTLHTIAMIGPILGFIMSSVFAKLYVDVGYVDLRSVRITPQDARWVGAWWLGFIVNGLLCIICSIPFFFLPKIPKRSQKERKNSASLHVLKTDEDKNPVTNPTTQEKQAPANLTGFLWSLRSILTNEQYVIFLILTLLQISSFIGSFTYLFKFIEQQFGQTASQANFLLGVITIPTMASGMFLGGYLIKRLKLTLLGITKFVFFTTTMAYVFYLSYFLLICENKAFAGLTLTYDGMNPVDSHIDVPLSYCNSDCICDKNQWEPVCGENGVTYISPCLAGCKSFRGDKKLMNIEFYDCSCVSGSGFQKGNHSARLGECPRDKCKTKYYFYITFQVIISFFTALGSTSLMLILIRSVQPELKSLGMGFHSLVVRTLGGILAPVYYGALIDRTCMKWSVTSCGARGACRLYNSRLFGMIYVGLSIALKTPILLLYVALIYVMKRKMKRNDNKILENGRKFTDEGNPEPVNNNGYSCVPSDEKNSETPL
Experiment: Untargeted metabolomics of plasma from untreated wild-type and Oatp1b2(−/−) mice
Conditions: for Fold of Change KO/WT: plasma of untreated Oatp1b2-deficient (KO) vs wild-type (WT) mice, semi-quantitative, positive = higher in KO, n = 6 per group; for Mean value KO: plasma of untreated Oatp1b2-deficient mice; for Mean value KO / Mean value WT: raw area counts rescaled to median = 1; for Mean value WT: plasma of untreated wild-type mice

CCCCC/C=C\C/C=C\C/C=C\C/C=C\CCCC(=O)O[C@H](COC(=O)CCCCCCC/C=C\CCCCCCCC)COP(=O)(O)OC1C(O)C(O)C(O)C(O)C1O (stereo partly drawn) [1-oleoyl-2-arachidonoyl-GPI (18:1/20:4)]
Fold of Change KO/WT: 2.01 | Mean value KO: 1.37 | Mean value WT: .681

Cc1cn([C@H]2C[C@H](O)[C@@H](CO)O2)c(=O)nc1N [5-methyl-2'-deoxycytidine]
Fold of Change KO/WT: 1.83 | Mean value KO: 1.56 | Mean value WT: .852

CSC[C@H](NC(=O)CC[C@H](N)C(=O)O)C(=O)NCC(=O)O [S-methylglutathione]
Fold of Change KO/WT: 1.19 | Mean value KO: 1.11 | Mean value WT: .931

CCCCC/C=C\C/C=C\C/C=C\C/C=C\CCCC(=O)O[C@H](COC(=O)CCCCCCC/C=C\C/C=C\CCCCC)COP(=O)([O-])OCC[N+](C)(C)C [1-linoleoyl-2-arachidonoyl-GPC (18:2/20:4n6)]
Fold of Change KO/WT: 1.36 | Mean value KO: 1.15 | Mean value WT: .846

CC/C=C\C/C=C\C/C=C\CCCCCCCC(=O)O[C@H](COC(=O)CCCCCCC/C=C\C/C=C\CCCCC)COP(=O)([O-])OCC[N+](C)(C)C [1-linoleoyl-2-linolenoyl-GPC (18:2/18:3)]
Fold of Change KO/WT: 1.51 | Mean value KO: 1.40 | Mean value WT: .923

CCCCCCCC/C=C\CCCCCCCC(=O)O[C@H](COC(=O)CCCCCCCCCCCCCCCCC)COP(=O)([O-])OCC[N+](C)(C)C [1-stearoyl-2-oleoyl-GPC (18:0/18:1)]
Fold of Change KO/WT: 1.20 | Mean value KO: 1.07 | Mean value WT: .892

CCCCC/C=C\C/C=C\C/C=C\C/C=C\CCCC(=O)O[C@H](CO/C=C\CCCCCCCCCCCCCCCC)COP(=O)(O)OCCN [1-(1-enyl-stearoyl)-2-arachidonoyl-GPE (P-18:0/20:4)]
Fold of Change KO/WT: 1.33 | Mean value KO: 1.10 | Mean value WT: .828

CCCCCCC=CCCCCCCCC(=O)OC(CC(=O)[O-])C[N+](C)(C)C (stereo not drawn) [palmitoleoylcarnitine (C16:1)]
Fold of Change KO/WT: 1.63 | Mean value KO: 1.54 | Mean value WT: .943

CC(C)(O)CC(=O)O [beta-hydroxyisovalerate]
Fold of Change KO/WT: 1.40 | Mean value KO: 1.17 | Mean value WT: .835

Cc1c(C)c2c(c(C)c1O)CC[C@@](C)(CCC[C@H](C)CCC[C@H](C)CCCC(C)C)O2 [α-tocopherol]
Fold of Change KO/WT: 2.03 | Mean value KO: 1.44 | Mean value WT: .707

O=C(O)CCCCCCCCCCCCCCCCC(=O)O [octadecanedioate (C18-DC)]
Fold of Change KO/WT: 1.38 | Mean value KO: 1.27 | Mean value WT: .916

CC/C=C\C/C=C\C/C=C\C/C=C\C/C=C\C/C=C\CCC(=O)O[C@H](COC(=O)CCCCCCC/C=C\CCCCCCCC)COP(=O)([O-])OCC[N+](C)(C)C [1-oleoyl-2-docosahexaenoyl-GPC (18:1/22:6)]
Fold of Change KO/WT: 1.34 | Mean value KO: 1.17 | Mean value WT: .874

CC(O)(CCO)CC(=O)O (stereo not drawn) [mevalonate]
Fold of Change KO/WT: 1.24 | Mean value KO: 1.15 | Mean value WT: .925

C[C@H](CCC(=O)O)[C@H]1CC[C@H]2[C@@H]3[C@H](O)C[C@@H]4C[C@H](O)CC[C@]4(C)[C@H]3CC[C@]12C [chenodeoxycholate]
Fold of Change KO/WT: 3.57 | Mean value KO: 2.09 | Mean value WT: .585

CCCCC/C=C\C/C=C\CCCCCCCC(=O)OC[C@@H](O)COP(=O)(O)OC1[C@H](O)[C@H](O)C(O)[C@H](O)[C@H]1O (stereo partly drawn) [1-linoleoyl-GPI (18:2)]
Fold of Change KO/WT: 1.65 | Mean value KO: 1.27 | Mean value WT: .765

CCCCC/C=C\C/C=C\CCCCCCCC(=O)O[C@H](CC(=O)[O-])C[N+](C)(C)C [linoleoylcarnitine (C18:2)]
Fold of Change KO/WT: 1.62 | Mean value KO: 1.36 | Mean value WT: .838

CCCCCCC(=O)NCC(=O)O [heptanoyl glycine]
Fold of Change KO/WT: 1.52 | Mean value KO: 1.32 | Mean value WT: .868

CCCCC/C=C\C/C=C\CCCCCCCC(=O)OC[C@@H](O)COP(=O)(O)O [1-linoleoyl-GPA (18:2)]
Fold of Change KO/WT: 2.36 | Mean value KO: 1.41 | Mean value WT: .595

C=CC1=C(C)/C(=C/c2[nH]c(Cc3[nH]c(/C=C4\NC(=O)C(C)=C4C=C)c(C)c3CCC(=O)O)c(CCC(=O)O)c2C)NC1=O [bilirubin (Z,Z)]
Fold of Change KO/WT: 5.25 | Mean value KO: 1.48 | Mean value WT: .282

CCCCC/C=C\C/C=C\C/C=C\C/C=C\CCCC(=O)O[C@H](COC(=O)CCCCCCC/C=C\C/C=C\CCCCC)COP(=O)(O)OCCN [1-linoleoyl-2-arachidonoyl-GPE (18:2/20:4)]
Fold of Change KO/WT: 1.48 | Mean value KO: 1.26 | Mean value WT: .854

CCO[C@@H]1O[C@H](CO)[C@@H](O)[C@H](O)[C@H]1O [ethyl beta-glucopyranoside]
Fold of Change KO/WT: 1.41 | Mean value KO: 1.17 | Mean value WT: .826

CC(C)CCC[C@@H](C)[C@H]1CC[C@H]2[C@@H]3CCC4=CC(=O)CC[C@]4(C)[C@H]3CC[C@]12C [4-cholesten-3-one]
Fold of Change KO/WT: 1.29 | Mean value KO: 1.12 | Mean value WT: .870

CC(C(=O)O)c1ccc(O)cc1 (stereo not drawn) [2-(4-hydroxyphenyl)propionate]
Fold of Change KO/WT: 1.30 | Mean value KO: 1.16 | Mean value WT: .895

CC(C)C(=O)O[C@H](CC(=O)[O-])C[N+](C)(C)C [isobutyrylcarnitine (C4)]
Fold of Change KO/WT: 1.40 | Mean value KO: 1.15 | Mean value WT: .817

Cc1ccc(O[C@@H]2O[C@H](C(=O)O)[C@@H](O)[C@H](O)[C@H]2O)cc1 [p-cresol glucuronide]
Fold of Change KO/WT: 11.8 | Mean value KO: 5.92 | Mean value WT: .503

C[C@H](CCC(=O)O)[C@H]1CC[C@H]2[C@@H]3[C@H](O)[C@H](O)[C@@H]4C[C@H](O)CC[C@]4(C)[C@H]3CC[C@]12C [hyocholate]
Fold of Change KO/WT: 5.64 | Mean value KO: 1.41 | Mean value WT: .251

CCCCCC/C=C\CCCCCCCC(=O)OC[C@@H](O)COP(=O)([O-])OCC[N+](C)(C)C [1-palmitoleoyl-GPC (16:1)]
Fold of Change KO/WT: 1.97 | Mean value KO: 1.31 | Mean value WT: .666

C[C@H](CCC(=O)NCCS(=O)(=O)O)[C@H]1CC[C@H]2[C@@H]3CC[C@@H]4C[C@H](OS(=O)(=O)O)CC[C@]4(C)[C@H]3CC[C@]12C [taurolithocholate 3-sulfate]
Fold of Change KO/WT: 2.25 | Mean value KO: 0.960 | Mean value WT: .425

COP(=O)(O)O [methylphosphate]
Fold of Change KO/WT: 1.27 | Mean value KO: 1.08 | Mean value WT: .848

O=C(O)CC[C@H](NC(=O)Cc1ccccc1)C(=O)O [phenylacetylglutamate]
Fold of Change KO/WT: 1.46 | Mean value KO: 1.24 | Mean value WT: .850

CC(=O)Nc1ccc(C(=O)O)cc1 [4-acetamidobenzoate]
Fold of Change KO/WT: 2.14 | Mean value KO: 1.46 | Mean value WT: .685

octadecenedioate (C18:1-DC)
Fold of Change KO/WT: 2.66 | Mean value KO: 1.45 | Mean value WT: .544

CCCCCCCCCCCCCCCC(=O)OC[C@@H](O)COP(=O)([O-])OCC[N+](C)(C)C [1-palmitoyl-GPC (16:0)]
Fold of Change KO/WT: 1.29 | Mean value KO: 1.12 | Mean value WT: .868

Cc1ccc(OS(=O)(=O)O)c(N)c1 [2-amino-p-cresol sulfate]
Fold of Change KO/WT: 4.28 | Mean value KO: 1.86 | Mean value WT: .435

C[N+](C)(C)CC(CC(=O)[O-])OC(=O)CCCCCCCCCCCCCCCCC(=O)O (stereo not drawn) [octadecanedioylcarnitine (C18-DC)]
Fold of Change KO/WT: 1.16 | Mean value KO: 1.00 | Mean value WT: .860

N[C@@H](CCC(=O)NCC(=O)O)C(=O)O [gamma-glutamylglycine]
Fold of Change KO/WT: 1.23 | Mean value KO: 1.17 | Mean value WT: .950

Nc1ncnc2c1ncn2C1OC(COP(=O)(O)O)C(O)C1O (stereo not drawn) [adenosine 5'-monophosphate (AMP)]
Fold of Change KO/WT: 1.12 | Mean value KO: 1.04 | Mean value WT: .927

O=C(O)CCCCCCCCC(O)CC(=O)O (stereo not drawn) [3-hydroxydodecanedioate]
Fold of Change KO/WT: 4.32 | Mean value KO: 1.64 | Mean value WT: .380

NCCOP(=O)(O)OCC(O)CO (stereo not drawn) [glycerophosphoethanolamine]
Fold of Change KO/WT: 1.57 | Mean value KO: 1.31 | Mean value WT: .831

heptadecenamide (17:1)
Fold of Change KO/WT: 1.37 | Mean value KO: 1.29 | Mean value WT: .939
